In patent publication US20250304535A1, “KAT6 Inhibitors” (BeiGene Switzerland GmbH, priority 2024, published 2025):

Assays:
[1] = molecular target: Recombinant human KAT6A protein (497-780) (Homo sapiens (Human), UniProt Q92794); assay: KAT6A biochemical TR-FRET assay; conditions: histone H4 peptide 2000 nM, AcCoA 300 nM, enzyme 5 nM
Experimental: Enzymatic reactions of KAT6A and KAT6B were performed using Fluorescence Resonance Energy Transfer (TR-FRET) assay, which measures acetylation of a synthetic, biotinylated histone-H4 peptide by the KAT6A and KAT6B enzymes. Recombinant human KAT6A protein (497-780) were expressed in BL21 cell using an E. coli expression system. Recombinant human KAT6B protein (657-1069) was expressed in sf9 cell using a baculovirus expression system. […] Acetyl coenzyme A was purchased from Sigma-Aldrich (#A-2056).
Testing for the inhibition activities of various compounds disclosed herein was carried out at room temperature in assay buffer containing 100 mM Tris/HCl Ph7.8, 15 mM NaCl, 0.01% chicken egg white albumin, 1 mM DTT and 0.01% Tween-20. Compounds in DMSO were dispensed into wells of a black, 384-well plate (Corning 4514) using ECHO555 (Beckman). The final concentration ranges of the test compounds were 0.0625-1,000 nM, 0.625-10,000 nM, or 0.313-5,000 nM. Five μL of KAT6A or KAT6B enzyme solution were added to wells, and the plate was incubated for 1 hour at room temperature (rt). After incubation for 1 hour at rt, 5 μL H4 and AcCoA substrate solutions were added to the wells to initiate reaction, and the plate was incubated. After 2 hours reaction, 5 μL detection reagent were added to the wells, and the plate was incubated for 2 hours. After two hours incubation, detection reagent containing 5 nM Anti-histone H4 antibody (ABCAM #ab177790), 100 μM formic acid (sigma #06473-100ML), 0.1 test/μL streptavidin-XL665 (PerkinElmer #610SAXLG), 0.05 test/μL PAb anti-rabbit IgG-Eu (PerkinElmer μ61PARKLA) was added to the wells. TR-FRET was measured on a microplate reader (PHERAstar FSX, BMG labtech). […] In Table 6, I≤5 nM, 5 nM<II≤50 nM.

[2] = molecular target: Recombinant human KAT6B protein (657-1069) (Homo sapiens (Human), UniProt Q8WYB5); assay: KAT6B biochemical TR-FRET assay; conditions: histone H4 peptide 1000 nM, AcCoA 100 nM, enzyme 5 nM
Sequence of Recombinant human KAT6B protein (657-1069) (Q8WYB5 657-1069): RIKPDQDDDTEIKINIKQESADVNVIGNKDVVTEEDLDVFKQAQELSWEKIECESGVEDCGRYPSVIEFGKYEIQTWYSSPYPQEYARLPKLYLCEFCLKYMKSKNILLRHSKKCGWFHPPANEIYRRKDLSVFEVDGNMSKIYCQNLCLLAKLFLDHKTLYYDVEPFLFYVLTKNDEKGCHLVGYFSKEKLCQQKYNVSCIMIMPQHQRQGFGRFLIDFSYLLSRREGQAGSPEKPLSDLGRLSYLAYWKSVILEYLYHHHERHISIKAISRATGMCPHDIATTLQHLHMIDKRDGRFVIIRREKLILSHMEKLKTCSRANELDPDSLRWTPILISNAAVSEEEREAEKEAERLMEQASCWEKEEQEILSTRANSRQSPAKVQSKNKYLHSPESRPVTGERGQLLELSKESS
Experimental: Enzymatic reactions of KAT6A and KAT6B were performed using Fluorescence Resonance Energy Transfer (TR-FRET) assay, which measures acetylation of a synthetic, biotinylated histone-H4 peptide by the KAT6A and KAT6B enzymes. Recombinant human KAT6A protein (497-780) were expressed in BL21 cell using an E. coli expression system. Recombinant human KAT6B protein (657-1069) was expressed in sf9 cell using a baculovirus expression system. Histone H4 peptide (SEQ ID NO: 1—[…]-GGK-Biotin), which was used as substrate, was synthesized by GL Biochem, Shanghai, China. Acetyl coenzyme A was purchased from Sigma-Aldrich (#A-2056).
Testing for the inhibition activities of various compounds disclosed herein was carried out at room temperature in assay buffer containing 100 mM Tris/HCl Ph7.8, 15 mM NaCl, 0.01% chicken egg white albumin, 1 mM DTT and 0.01% Tween-20. Compounds in DMSO were dispensed into wells of a black, 384-well plate (Corning 4514) using ECHO555 (Beckman). The final concentration ranges of the test compounds were 0.0625-1,000 nM, 0.625-10,000 nM, or 0.313-5,000 nM. Five μL of KAT6A or KAT6B enzyme solution were added to wells, and the plate was incubated for 1 hour at room temperature (rt). After incubation for 1 hour at rt, 5 μL H4 and AcCoA substrate solutions were added to the wells to initiate reaction, and the plate was incubated. After 2 hours reaction, 5 μL detection reagent were added to the wells, and the plate was incubated for 2 hours. After two hours incubation, detection reagent containing 5 nM Anti-histone H4 antibody (ABCAM #ab177790), 100 μM formic acid (sigma #06473-100ML), 0.1 test/μL streptavidin-XL665 (PerkinElmer #610SAXLG), 0.05 test/μL PAb anti-rabbit IgG-Eu (PerkinElmer μ61PARKLA) was added to the wells. TR-FRET was measured on a microplate reader (PHERAstar FSX, BMG labtech). The IC50s were calculated based on inhibition of enzyme activity in the presence of increasing concentrations of test compounds, and the results are shown in Table 6. In Table 6, I≤5 nM, 5 nM<II≤50 nM.

[3] = test system: histone H3K23 acetylation in U-2 OS cells; assay: Histone H3 lysine 23 acetylation assay in U-2 OS cells (high content analysis); format: cell-based; conditions: Homo sapiens, U2OS, 24 hrs exposure, H3K23ac level
Experimental: Assay B: Histone H3 lysine 23 Acetylation Assay
Compounds were tested for their capacity to suppress the histone H3K23 acetylation in the following high content analysis assay.
The cell line U-2 OS (ATCC HTB-96) was seeded at a density of 2000 cells per well in black 384 well cell culture/imaging microplates in 45 μl McCoy's 5A medium with […]. After overnight incubation in 37° C., 5% CO2 incubator, cells were then treated with a 9-point dilution series of compounds and a blank control group with medium containing 0.1% DMSO.
Following a 24 hrs exposure to the compounds, the cells were fixed with 4% immunohistochemical fixative for 20 mins at room temperature, washed with DPBS with 2% fetal bovine serum, and permed with Perm Buffer III for 30 min on ice, washed with DPBS with 2% fetal bovine serum. Then the cells were blocked with Odyssey blocking buffer containing 0.1% Tween 20. 20 ul Anti-Histone H3 (acetyl K23) antibody (Abcam, ab177275) in odyssey blocking buffer containing 0.1% Tween20 was added and incubated overnight at 4° C. After incubation, the cells were washed for 3 times and a secondary antibody Anti-rabbit IgG (H+L), F(ab′)2 Fragment (Alexa Fluor® 647 Conjugate) (CST, 4414S) were added into cells for one hour. The cells were washed and 1 ug/ml DAPI (Thermo, 62248) were added for 10 min. Then cells were washed and read on the PerkinElmer Operetta CLS high content analysis system. The nuclei were identified by DAPI and H3K23ac level was calculated from the Alexa Fluor 647 intensity in the nuclei. Inhibition rate of H3K23ac was calculated as the mean intensity of cells per well relative to blank controls on the same plate.

Sequence of Recombinant human KAT6A protein (497-780) (Q92794 497-780): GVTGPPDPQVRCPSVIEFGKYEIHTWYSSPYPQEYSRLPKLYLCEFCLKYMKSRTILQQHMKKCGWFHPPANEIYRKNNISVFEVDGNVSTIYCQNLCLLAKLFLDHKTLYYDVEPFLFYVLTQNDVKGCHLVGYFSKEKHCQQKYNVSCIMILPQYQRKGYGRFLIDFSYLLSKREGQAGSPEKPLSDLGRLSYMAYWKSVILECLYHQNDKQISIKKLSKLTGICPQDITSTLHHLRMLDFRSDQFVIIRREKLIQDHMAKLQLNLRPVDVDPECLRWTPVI

Row | SMILES | IC50 [1] | IC50 [2] | IC50 [3]
1 | COc1ccc(C(C)(C)C)nc1S(=O)(=O)NC(=O)c1ccc(Cn2cccn2)c(C2COC2)c1 [Example C19, 4-((1H-pyrazol-1-yl)methyl)-N-((6-(tert-butyl)-3-methoxypyridin-2-yl)sulfonyl)-3-(oxetan-3-yl)benzamid] | ≤ 5 nM | ≤ 5 nM | 10 to 100 nM
2 | COc1ccc(C(C)(C)C)nc1S(=O)(=O)NC(=O)c1ccc(Cn2cccn2)c(N2CCC2)c1 [Example C20, 4-((1H-pyrazol-1-yl)methyl)-3-(azetidin-1-yl)-N-((6-(tert-butyl)-3-methoxypyridin-2-yl)sulfonyl)benzamide] | ≤ 5 nM | ≤ 5 nM | ≤ 10 nM
3 | COc1ccc(C(C)(C)C)nc1S(=O)(=O)NC(=O)c1ccc(Cn2cccn2)c(Cl)c1 [Example C22, 4-((1H-pyrazol-1-yl)methyl)-N-((6-(tert-butyl)-3-methoxypyridin-2-yl)sulfonyl)-3-chlorobenzamide] | ≤ 5 nM | ≤ 5 nM | ≤ 10 nM
4 | COc1ccc(C(C)(C)C)nc1S(=O)(=O)NC(=O)c1ccc(Cn2cccn2)c(C(F)(F)F)c1 [Example C25, 4-((1H-pyrazol-1-yl)methyl)-N-((6-(tert-butyl)-3-methoxypyridin-2-yl)sulfonyl)-3-(trifluoromethyl)benzamide] | ≤ 5 nM | ≤ 5 nM | ≤ 10 nM
5 | COc1ccc(C(C)(C)C)nc1S(=O)(=O)NC(=O)c1ccc(Cn2cccn2)c(Br)c1 [Example C26, 4-((1H-pyrazol-1-yl)methyl)-3-bromo-N-((6-(tert-butyl)-3-methoxypyridin-2-yl)sulfonyl)benzamide] | ≤ 5 nM | ≤ 5 nM | ≤ 10 nM
6 | COc1cc(C(=O)NS(=O)(=O)c2nc(C(C)(C)C)ccc2OC)ccc1Cn1cccn1 [Example C27, 4-((1H-pyrazol-1-yl)methyl)-N-((6-(tert-butyl)-3-methoxypyridin-2-yl)sulfonyl)-3-methoxy-benzamide] | ≤ 5 nM | ≤ 5 nM | ≤ 10 nM
7 | COc1ccc(C(C)(C)C)nc1S(=O)(=O)NC(=O)c1ccc(Cn2cccn2)c(CC(F)F)c1 [Example C31, 4-((1H-pyrazol-1-yl)methyl)-N-((6-(tert-butyl)-3-methoxypyridin-2-yl)sulfonyl)-3-(2,2-difluoroethyl)benzamide] | ≤ 5 nM | ≤ 5 nM | 10 to 100 nM
8 | COc1cc(C(=O)NS(=O)(=O)c2nc(C(C)(C)C)ccc2OC)ccc1Cc1ccccn1 [Example C32, N-((6-(tert-butyl)-3-methoxypyridin-2-yl)sulfonyl)-3-methoxy-4-(pyridin-2-ylmethyl)benzamide] | ≤ 5 nM | ≤ 5 nM | ≤ 10 nM
9 | COc1cc(C(=O)NS(=O)(=O)c2nc(C(C)(C)C)ccc2OC)ccc1Cn1ccc(C)n1 [Example C33, N-((6-(tert-butyl)-3-methoxypyridin-2-yl)sulfonyl)-3-methoxy-4-((3-methyl-1H-pyrazol-1-yl)methyl)benzamide] | ≤ 5 nM | ≤ 5 nM | ≤ 10 nM
10 | CCOc1nc(C(=O)NS(=O)(=O)c2nc(C(C)(C)C)ccc2OC)ccc1Cn1cccn1 [Example C34, 5-((1H-pyrazol-1-yl)methyl)-N-((6-(tert-butyl)-3-methoxypyridin-2-yl)sulfonyl)-6-ethoxy-picolinamide] | ≤ 5 nM | ≤ 5 nM | ≤ 10 nM

The remaining lines, values ahead:

Row | IC50 [1] | IC50 [2] | IC50 [3] | SMILES
11 | ≤ 5 nM | ≤ 5 nM | ≤ 10 nM | COc1ccc(C(C)(C)C)cc1S(=O)(=O)NC(=O)c1ccc(Cn2cccn2)c(C2CCO2)c1 (stereo not drawn) [Example C18, 4-((1H-pyrazol-1-yl)methyl)-N-((5-(tert-butyl)-2-methoxyphenyl)sulfonyl)-3-(oxetan-2-yl)benzamide]
12 | ≤ 5 nM | ≤ 5 nM | ≤ 10 nM | COc1ccc(C(C)(C)C)nc1S(=O)(=O)NC(=O)c1ccc(Cn2cccn2)c(C2CCC2)c1 [Example C21, 4-((1H-pyrazol-1-yl)methyl)-N-((6-(tert-butyl)-3-methoxypyridin-2-yl)sulfonyl)-3-cyclobutyl-benzamide]
13 | ≤ 5 nM | ≤ 5 nM | ≤ 10 nM | CCc1cc(C(=O)NS(=O)(=O)c2nc(C(C)(C)C)ccc2OC)ccc1Cn1cccn1 [Example C23, 4-((1H-pyrazol-1-yl)methyl)-N-((6-(tert-butyl)-3-methoxypyridin-2-yl)sulfonyl)-3-ethylbenzamide]
14 | ≤ 5 nM | ≤ 5 nM | 10 to 100 nM | COc1ccc(C(C)(C)C)nc1S(=O)(=O)NC(=O)c1ccc(Cn2cccn2)c(F)c1 [Example C24, 4-((1H-pyrazol-1-yl)methyl)-N-((6-(tert-butyl)-3-methoxypyridin-2-yl)sulfonyl)-3-fluorobenzamide]
15 | ≤ 5 nM | ≤ 5 nM | ≤ 10 nM | COc1cc(C(=O)NS(=O)(=O)c2cc(C3(OC)CC3)ccc2OC)ccc1Cn1cccn1 [Example C28, 4-((1H-pyrazol-1-yl)methyl)-3-methoxy-N-((2-methoxy-5-(1-methoxy-cyclopropyl)phenyl)sulfonyl)benzamide]
16 | ≤ 5 nM | ≤ 5 nM | ≤ 10 nM | COc1ccc(C(C)(C)C)cc1S(=O)(=O)NC(=O)c1ccc(Cc2ccccn2)c(C)c1 [Example C29, N-((5-(tert-butyl)-2-methoxyphenyl)sulfonyl)-3-methyl-4-(pyridin-2-ylmethyl)benzamide]
17 | ≤ 5 nM | ≤ 5 nM | ≤ 10 nM | COc1ccc(C(C)(C)C)nc1S(=O)(=O)NC(=O)c1ccc(Cn2cccn2)c(OC(F)F)c1 [Example C30, 4-((1H-pyrazol-1-yl)methyl)-N-((6-(tert-butyl)-3-methoxypyridin-2-yl)sulfonyl)-3-(difluoromethoxy)benzamide]
18 | ≤ 5 nM | ≤ 5 nM | ≤ 10 nM | COc1ccc(C(C)(C)C)cc1S(=O)(=O)NC(=O)c1ccc(Cc2ccccn2)c(C)n1 [Example C35, N-((5-(tert-butyl)-2-methoxyphenyl)sulfonyl)-6-methyl-5-(pyridin-2-ylmethyl)picolinamide]
